Measurements as given in PubChem BioAssay AID449749 (Broad Institute, 2010).
Records with an inconclusive call do not appear. Calls of active or inactive are those of the source. The rule behind the calls is not given here.

What follows are compounds tested against Replicative DNA helicase DnaB (Mycobacterium tuberculosis (strain ATCC 25618 / H37Rv)) (UniProt P9WMR3) (assay: DnaB intein splicing inhibitors, dose response, biochemical, M. tuberculosis H37Rv, cell-free fluorescence (AID 449749)).
Replicative DNA helicase DnaB (Mycobacterium tuberculosis (strain ATCC 25618 / H37Rv)), sequence (P9WMR3 whole entry, looked up): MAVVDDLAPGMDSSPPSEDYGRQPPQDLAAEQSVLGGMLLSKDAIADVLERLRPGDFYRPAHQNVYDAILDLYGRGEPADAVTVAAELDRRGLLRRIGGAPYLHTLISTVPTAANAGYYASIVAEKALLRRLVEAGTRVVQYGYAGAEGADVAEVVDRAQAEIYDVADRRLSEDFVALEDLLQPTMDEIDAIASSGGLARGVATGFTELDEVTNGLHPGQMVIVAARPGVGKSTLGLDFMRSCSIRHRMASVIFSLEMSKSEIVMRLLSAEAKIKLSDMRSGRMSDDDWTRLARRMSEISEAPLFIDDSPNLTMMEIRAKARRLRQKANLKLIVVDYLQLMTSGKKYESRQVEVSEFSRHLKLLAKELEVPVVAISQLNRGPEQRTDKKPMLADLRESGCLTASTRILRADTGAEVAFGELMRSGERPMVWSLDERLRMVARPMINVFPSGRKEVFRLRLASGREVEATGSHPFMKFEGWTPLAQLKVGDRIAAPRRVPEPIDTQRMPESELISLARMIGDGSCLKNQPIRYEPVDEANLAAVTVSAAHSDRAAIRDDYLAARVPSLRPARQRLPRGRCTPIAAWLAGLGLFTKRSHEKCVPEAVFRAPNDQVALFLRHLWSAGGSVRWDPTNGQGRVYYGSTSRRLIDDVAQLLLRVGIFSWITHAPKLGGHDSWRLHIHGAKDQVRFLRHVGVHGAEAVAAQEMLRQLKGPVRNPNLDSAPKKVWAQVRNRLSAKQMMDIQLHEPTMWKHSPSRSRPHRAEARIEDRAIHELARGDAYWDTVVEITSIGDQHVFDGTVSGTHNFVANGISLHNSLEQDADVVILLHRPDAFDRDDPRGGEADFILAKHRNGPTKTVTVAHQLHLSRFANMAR

SMILES | AC50
COc1ccc2ccc3c(c2c1)N=C[C@]1(O3)N(C)c2ccccc2C1(C)C | > 38 µM (inactive)
Oc1cc(O)c2c(c1)O[C@H](c1ccc(O)c(O)c1)[C@H](O)C2 | > 38 µM (inactive)
Cc1[nH][nH]c(=O)c1C(c1ccccc1[N+](=O)[O-])C(C#N)C#N (centres undefined) | > 12 µM (inactive)
Cc1[nH][nH]c(=O)c1[C@@H](c1ccccc1[N+](=O)[O-])C(C#N)C#N | > 38 µM (inactive)
